Assays:
[1] = DPPH* radical antioxidant test of plant extracts; type: biochemical; conditions: DPPH* assay, reference; read-out: EC50 of Vitamin E
[2] = Photobleaching of lycopenes in mineral oil; type: physicochemical; conditions: 0.1% in Mineral Oil, visible light and oxygen, FIG. 1
Text: FIG. 1A is a graph illustrating the effects of photobleaching of lycopenes dissolved in mineral oil, over time.
The principal plant actives under development are the hydrophobic plant actives derived from carrot extracts (carotenes) and tomato paste (lycopenes). Both actives are known anti-cancer agents and regulators of epithelial homeostasis. Their role in epidermopoeisis and skin care is still under investigation. For both materials, extracts have been prepared and enriched by sequential extraction with ethyl alcohol and organic solvents. These extracts are then dried to a powder form and solubilized in Mineral Oil. A clear necessity for the preparation of such formulations is to prevent the photo-bleaching that occurs in mineral oil solutions exposed to visible light and oxygen This may typically be accomplished by addition of mineral oil solutions of Vitamin E (0.1%). […] Similar results have been obtained with the addition of Vitamin E to prevent the photo-bleaching of carotenes derived from Carrot Extracts.

effect on photo-bleaching of lycopenes [2]: photo-protective effect
Substance: Tocopherol [Vitamin E]
EC50 [1]: 46 µM

Reference: patent US20050048020A1, “Novel topical delivery system for plant derived anti-irritants” (priority 2003, published 2005)
